{"source": "paper PMC3720905", "about": "“A Conserved Aspartic Acid Is Important for Agonist (VUAA1) and Odorant/Tuning Receptor-Dependent Activation of the Insect Odorant Co-Receptor (Orco)” (PLoS ONE, 2013)", "key": {"[1]": {"target": "T1, DmelOrco (N-myc DmelOrco) (Drosophila melanogaster, UniProt Q9VNB5)", "T1 construct": "gene Orco; homomeric channel; ~50 kDa band", "T1 sequence (Q9VNB5 1-486)": "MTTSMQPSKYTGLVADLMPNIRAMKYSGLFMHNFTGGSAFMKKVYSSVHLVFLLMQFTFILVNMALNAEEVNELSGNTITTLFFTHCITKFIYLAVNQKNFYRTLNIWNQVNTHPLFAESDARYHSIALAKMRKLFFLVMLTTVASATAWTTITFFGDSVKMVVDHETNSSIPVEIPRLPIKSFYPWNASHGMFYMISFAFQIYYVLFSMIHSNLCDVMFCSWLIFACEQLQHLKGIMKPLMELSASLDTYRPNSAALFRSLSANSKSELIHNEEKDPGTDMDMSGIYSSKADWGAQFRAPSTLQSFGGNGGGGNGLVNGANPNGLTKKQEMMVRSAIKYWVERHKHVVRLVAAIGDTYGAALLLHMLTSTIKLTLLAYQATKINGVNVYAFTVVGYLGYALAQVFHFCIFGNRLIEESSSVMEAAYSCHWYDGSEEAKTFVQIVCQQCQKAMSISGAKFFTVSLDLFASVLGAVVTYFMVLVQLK", "test": "Ca2+ influx (Fluo-4 fluorescence)", "assay_type": "cell-based"}, "[2]": {"target": "T2, DmelOrco (N-myc DmelOrco) (Drosophila melanogaster, UniProt Q9VNB5, D357N)", "T2 construct": "gene Orco; homomeric channel; ~50 kDa band", "T2 sequence (Q9VNB5 1-486 D357N)": "T1 sequence (Q9VNB5 1-486)", "test": "Ca2+ influx (Fluo-4 fluorescence)", "assay_type": "cell-based"}, "[3]": {"target": "T3, DmelOrco (N-myc DmelOrco) (Drosophila melanogaster, UniProt Q9VNB5, D466N)", "T3 construct": "gene Orco; homomeric channel; ~50 kDa band", "T3 sequence (Q9VNB5 1-486 D466N)": "T1 sequence (Q9VNB5 1-486)", "test": "Ca2+ influx (Fluo-4 fluorescence)", "assay_type": "cell-based"}, "[4]": {"target": "T4, DmelOrco (N-myc DmelOrco) (Drosophila melanogaster, UniProt Q9VNB5, D466E)", "T4 construct": "gene Orco; homomeric channel; ~50 kDa band", "T4 sequence (Q9VNB5 1-486 D466E)": "T1 sequence (Q9VNB5 1-486)", "test": "Ca2+ influx (Fluo-4 fluorescence)", "assay_type": "cell-based"}, "[5]": {"target": "T5, DmelOrco/DmelOR22a complex (Drosophila melanogaster, UniProt P81909)", "T5 construct": "gene Or22a; heteromeric channel; Or22a in pCI transiently transfected into Flp-In 293 T-REX cells stably expressing N-myc DmelOrco; stoichiometry unknown; with Odorant receptor coreceptor", "T5 sequence (P81909 1-397)": "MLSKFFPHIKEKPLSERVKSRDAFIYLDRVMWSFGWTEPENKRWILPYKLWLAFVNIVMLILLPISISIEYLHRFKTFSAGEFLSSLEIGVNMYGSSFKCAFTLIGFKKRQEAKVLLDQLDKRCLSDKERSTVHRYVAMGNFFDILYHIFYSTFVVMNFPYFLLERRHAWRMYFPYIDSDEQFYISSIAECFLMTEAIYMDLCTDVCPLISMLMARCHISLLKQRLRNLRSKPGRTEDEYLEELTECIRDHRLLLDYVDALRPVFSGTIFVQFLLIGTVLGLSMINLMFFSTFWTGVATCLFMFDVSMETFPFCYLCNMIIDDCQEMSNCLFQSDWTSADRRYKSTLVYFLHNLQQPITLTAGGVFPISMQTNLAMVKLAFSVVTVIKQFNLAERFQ", "T5 sequence (Q9VNB5 1-486 partner)": "T1 sequence (Q9VNB5 1-486)", "test": "Ca2+ influx (Fluo-4 AM fluorescence)", "assay_type": "cell-based", "details": "heteromeric channel, odorant agonist; data not shown"}, "DmelOrco/AgOR65 complex [6]": {"system": "T6, DmelOrco/AgOR65 complex", "T6 construct": "gene Or65; mixed-species heteromeric channel; AgOR65 in pCI transfected into Flp-In 293 T-REX cells stably expressing N-myc DmelOrco; with Odorant receptor coreceptor (Drosophila melanogaster)", "test": "Ca2+ influx (Fluo-4 AM fluorescence)", "assay_type": "cell-based, Anopheles gambiae", "details": "log10 of molar EC50 (unit not given); heteromeric channel, odorant agonist"}, "DmelOrco/AgOR65 complex [7]": {"system": "T6, DmelOrco/AgOR65 complex", "test": "Ca2+ influx (Fluo-4 AM fluorescence)", "assay_type": "cell-based, Anopheles gambiae", "details": "log10 of molar EC50 (unit not given); heteromeric channel, odorant agonist", "remark": "listed apart in the source"}, "DmelOrco/AgOR65 complex [8]": {"system": "T6, DmelOrco/AgOR65 complex", "test": "Ca2+ influx (Fluo-4 AM fluorescence)", "assay_type": "cell-based, Anopheles gambiae", "details": "log10 of molar EC50 (unit not given); heteromeric channel, odorant agonist", "remark": "listed apart in the source"}, "[9]": {"target": "T5, DmelOrco/DmelOR22a complex", "test": "Ca2+ influx (Fluo-4 AM fluorescence)", "assay_type": "cell-based"}}, "data": [{"smiles": "CCc1ccc(NC(=O)CSc2nnc(-c3cccnc3)n2CC)cc1", "note": "[VUAA1, N-(4-ethylphenyl)-2-((4-ethyl-5-(3-pyridinyl)-4H-1,2,4-triazol-3-yl)thio)acetamide]", "values": [{"measurement": "EC50", "setting": "[1]", "result": 46.8, "unit": "µM"}, {"measurement": "EC50", "setting": "[2]", "result": 38, "unit": "µM"}, {"measurement": "EC50", "setting": "[3]", "result": 85.1, "unit": "µM"}, {"measurement": "EC50", "setting": "[4]", "result": 21.4, "unit": "µM"}]}, {"smiles": "CCCCCC(=O)OCC", "note": "[ethyl hexanoate]", "values": [{"measurement": "Ca2+ influx (Fluo-4 AM fluorescence)", "setting": "[5]", "result": "Essentially identical responses were observed to ethyl hexanoate"}]}, {"smiles": "C=CCc1ccc(O)c(OC)c1", "note": "[eugenol]", "values": [{"measurement": "LogEC50", "setting": "DmelOrco/AgOR65 complex [6]", "result": "-6.54±0.05"}, {"measurement": "LogEC50", "setting": "DmelOrco/AgOR65 complex [7]", "result": "-6.34±0.04"}, {"measurement": "LogEC50", "setting": "DmelOrco/AgOR65 complex [8]", "result": "-6.75±0.03"}]}, {"smiles": "CCCCCC(=O)OC", "note": "[methyl hexanoate]", "values": [{"measurement": "EC50", "setting": "[9]", "result": 0.417, "unit": "µM"}]}]}
